Results reported in ChEMBL document CHEMBL1131908 (Bioorg Med Chem Lett, 1999).

Key:
[1] = biological target: T1, Delta-type opioid receptor (Rattus norvegicus, UniProt P33533); assay: Ability to inhibit binding of SNC80 to delta opioid receptor
[2] = biological target: T1, Delta-type opioid receptor; assay: Ability to displace [3H]DADL from delta opioid receptor
[3] = biological target: T2, Kappa-type opioid receptor (Cavia porcellus, UniProt P41144); assay: Ability to displace [3H]U-69593 from kappa opioid receptor
[4] = biological target: T3, Mu-type opioid receptor (Rattus norvegicus, UniProt P33535); assay: Ability to displace [3H]DAMGO from mu opioid receptor
[5] = biological target: Opioid receptors; mu & delta (Homo sapiens) (UniProt P41143+P35372); assay: Ratio of binding affinities of mu and delta opioid receptors; assay type: protein assay
[6] = biological target: T2, Kappa-type opioid receptor; assay: Ability to inhibit binding of U-69,593 to kappa opioid receptor
[7] = biological target: T3, Mu-type opioid receptor; assay: Ability to inhibit binding of [3H]DAMGO to mu opioid receptor

Chain of Opioid receptors; mu & delta (Homo sapiens) (P35372 whole entry, looked up): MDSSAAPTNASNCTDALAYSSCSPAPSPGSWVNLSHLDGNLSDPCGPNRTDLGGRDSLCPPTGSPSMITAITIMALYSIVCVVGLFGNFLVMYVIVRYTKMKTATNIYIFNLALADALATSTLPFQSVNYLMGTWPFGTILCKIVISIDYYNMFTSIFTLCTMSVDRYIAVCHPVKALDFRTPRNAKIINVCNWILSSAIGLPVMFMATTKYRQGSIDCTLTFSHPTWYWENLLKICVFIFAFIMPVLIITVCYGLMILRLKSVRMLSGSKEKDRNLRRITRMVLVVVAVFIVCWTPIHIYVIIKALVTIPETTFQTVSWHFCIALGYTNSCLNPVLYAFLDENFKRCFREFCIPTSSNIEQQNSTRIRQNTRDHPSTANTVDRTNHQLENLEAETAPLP
Chain of Opioid receptors; mu & delta (Homo sapiens) (P41143 whole entry, looked up): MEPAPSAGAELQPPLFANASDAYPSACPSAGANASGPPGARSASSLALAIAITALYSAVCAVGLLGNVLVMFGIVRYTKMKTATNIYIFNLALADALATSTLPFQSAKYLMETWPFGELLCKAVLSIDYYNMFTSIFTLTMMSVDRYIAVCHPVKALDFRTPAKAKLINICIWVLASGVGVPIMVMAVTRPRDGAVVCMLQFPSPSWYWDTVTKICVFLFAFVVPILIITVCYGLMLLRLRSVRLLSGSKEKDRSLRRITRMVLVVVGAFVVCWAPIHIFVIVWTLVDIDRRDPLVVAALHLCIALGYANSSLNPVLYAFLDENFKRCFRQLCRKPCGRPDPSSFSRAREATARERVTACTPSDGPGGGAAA
T2 sequence (P41144 whole entry): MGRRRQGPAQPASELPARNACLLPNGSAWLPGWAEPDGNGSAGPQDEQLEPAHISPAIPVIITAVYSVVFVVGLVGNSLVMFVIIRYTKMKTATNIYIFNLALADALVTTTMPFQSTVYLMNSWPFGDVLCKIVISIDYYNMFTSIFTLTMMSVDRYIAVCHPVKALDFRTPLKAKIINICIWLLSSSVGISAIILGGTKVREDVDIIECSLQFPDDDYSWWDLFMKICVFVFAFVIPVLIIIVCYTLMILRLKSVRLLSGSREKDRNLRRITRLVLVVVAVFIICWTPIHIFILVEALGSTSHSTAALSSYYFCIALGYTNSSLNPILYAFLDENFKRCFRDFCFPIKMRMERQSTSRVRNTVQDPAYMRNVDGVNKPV
T3 sequence (P33535 whole entry): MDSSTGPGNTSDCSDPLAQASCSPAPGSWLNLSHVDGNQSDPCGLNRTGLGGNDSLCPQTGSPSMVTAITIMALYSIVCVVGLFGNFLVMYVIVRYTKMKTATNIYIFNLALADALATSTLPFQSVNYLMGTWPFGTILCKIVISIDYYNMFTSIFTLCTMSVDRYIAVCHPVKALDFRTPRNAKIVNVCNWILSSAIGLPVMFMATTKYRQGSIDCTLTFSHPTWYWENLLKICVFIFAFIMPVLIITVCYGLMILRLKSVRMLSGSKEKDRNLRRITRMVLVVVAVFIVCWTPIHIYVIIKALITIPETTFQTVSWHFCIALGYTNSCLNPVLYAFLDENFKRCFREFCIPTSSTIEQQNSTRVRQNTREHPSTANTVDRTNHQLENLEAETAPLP
T1 sequence (P33533 whole entry): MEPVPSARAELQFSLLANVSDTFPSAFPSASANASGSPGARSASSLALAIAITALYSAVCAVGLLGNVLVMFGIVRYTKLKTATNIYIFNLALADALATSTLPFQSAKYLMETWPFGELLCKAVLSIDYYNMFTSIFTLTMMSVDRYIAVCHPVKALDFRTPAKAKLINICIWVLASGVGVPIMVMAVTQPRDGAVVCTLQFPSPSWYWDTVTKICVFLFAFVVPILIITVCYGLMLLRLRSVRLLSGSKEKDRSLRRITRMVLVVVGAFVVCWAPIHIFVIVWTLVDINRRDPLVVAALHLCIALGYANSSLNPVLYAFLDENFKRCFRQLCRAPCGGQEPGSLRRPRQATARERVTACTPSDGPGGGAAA

Row | SMILES | Ki [1] | Ki [2] | Ki [3] | Ki [4] | Ratio [5] | Ki [6] | Ki [7]
1 | Oc1ccc2c3c1O[C@H]1c4[nH]c5ccccc5c4C[C@@]4(O)[C@@H](C2)N(CC2CC2)CC[C@]314 [NALTRINDOLE] | 0.062 nM | – | – | – | – | – | –
2 | O[C@@]12Cc3c([nH]c4ccccc34)C3Oc4c(OCCc5ccccc5)ccc5c4[C@@]31CCN(CC1CC1)[C@@H]2C5 (some centres undefined) | – | 1040 nM | > 7040 nM | > 6250 nM | 7 | – | –
3 | O[C@@]12Cc3c([nH]c4ccccc34)C3Oc4c(OCc5ccccc5)ccc5c4[C@@]31CCN(CC1CC1)[C@@H]2C5 (some centres undefined) | – | 103 nM | 728 nM | 396 nM | 4 | – | –
4 | COc1ccc2c3c1OC1c4[nH]c5ccccc5c4C[C@@]4(O)[C@@H](C2)N(CC2CC2)CC[C@]314 (some centres undefined) | 9 nM | 6.57 nM | 3910 nM | 2510 nM | – | 1760 nM | 411 nM
5 | O[C@@]12Cc3c([nH]c4ccccc34)C3Oc4c(OCCCc5ccccc5)ccc5c4[C@@]31CCN(CC1CC1)[C@@H]2C5 (some centres undefined) | – | 99 nM | > 5320 nM | > 6250 nM | 54 | – | –
